Experimental data from patent US20140271667A1, “Methods and Compositions for Neoadjuvant Therapy” (The Wistar Institute of Anatomy and Biology, priority 2013, published 2014).

Assays:
PC3 cells [1] = assay: Transwell cell migration; format: cell-based, human; conditions: Gamitrinib 5 μM, 17-AAG 5 μM, CCCP 12.5 μM, 2-DG 25 mM, rapamycin 0.1 μM, 6 h
Protocol: (§1) Various tumor cell types were treated as indicated in each experiment, suspended in 0.1% BSA/DMEM and seeded (1.6−3.2×10^3 cells/mm2, depending on the cell type) in the upper compartment of […] pore diameter BD transwells (BD). NIH3T3 conditioned medium was placed in the lower compartment as a chemoattractant. After 6-18 h incubations at 37° C., the transwell membranes were recovered and cells on the upper side (non-migratory) were wiped off the surface. Cells on the lower side of the membrane were fixed in methanol, rinsed in water and mounted on glass slides with Vectashield medium containing DAPI (Vector Laboratories). Migrated cells on each membrane were counted by fluorescence microscopy in 5 different fields. For cell invasion assays, transwell membranes were coated with Matrigel and processed as described above.

PC3 cells [2] = assay: Cell proliferation by direct cell counting; format: cell-based, human; conditions: vs vehicle, Gamitrinib 5 μM, CCCP 12.5 μM, 2-DG 25 mM
Protocol: (§2) Tumor cells were plated onto 96-well plates at 3.7×10^3/well and treated with vehicle or Gamitrinib (5 μM). After 24 h, cell viability was assessed with a 3 (4,5-dimethyl-thyazoyl-2-yl)2,5 diphenyltetrazolium bromide (MTT) colorimetric assay (24), or, alternatively, by Trypan blue exclusion and light microscopy. Data were background-subtracted relative to vehicle-treated cultures. In some experiments, tumor cell proliferation was assessed by direct cell counting and light microscopy.

PC3 cells [3] = assay: Cell death by Trypan blue exclusion; format: cell-based; conditions: vs vehicle, Gamitrinib 5 μM, CCCP 12.5 μM, 2-DG 25 mM
Protocol: as §2

PC3 cells [4] = assay: Matrigel-coated transwell cell invasion; format: cell-based, human; conditions: Gamitrinib 5 μM, 17-AAG 5 μM, CCCP 12.5 μM, 2-DG 25 mM, 16 h
Protocol: as §1

[5] = system: Focal Adhesion Kinase (FAK); assay: Western blotting, FAK phosphorylation; format: cell-based, human; conditions: tumor cells (PC3); Gamitrinib 5 μM, CCCP 12.5 μM, rapamycin 0.1 μM
Protocol: (§3) Protein lysates were prepared in RIPA buffer containing 150 mM NaCl, 1.0% Triton X-100, 0.5% sodium deoxycholate, 0.1% SDS, 50 mM Tris, pH 8.0, in the presence of EDTA-free protease inhibitor cocktail (Roche) and phosphatase inhibitor cocktail 2 and 3 (Sigma Aldrich). Equal amounts of protein lysates were separated by SDS gel electrophoresis, transferred to PVDF membranes and incubated with primary antibodies of various specificities. Protein bands were detected by chemiluminescence, as described (21).

4EBP1 = assay: Western blotting, 4EBP1 phosphorylation; format: cell-based, human; conditions: PC3; rapamycin 0.1 μM
Protocol: as §3

Raptor = assay: Western blotting, Raptor phosphorylation; format: cell-based, human; conditions: PC3; Gamitrinib 5 μM, metformin 5 mM 6 h, 17-AAG 5 μM
Protocol: as §3

ULK1 = assay: Western blotting, ULK1 phosphorylation and level; format: cell-based, human; conditions: for ULK1 phosphorylation on Ser555: Gamitrinib 5 μM (within 1-2 h); for ULK1 phosphorylation on Ser555 / ULK1 phosphorylation on Ser757: metformin 5 mM 6 h, 17-AAG 5 μM; for ULK1 phosphorylation on Ser757: Gamitrinib 5 μM
Protocol: as §3

AMPK = assay: Western blotting, AMPK and ACC phosphorylation; format: cell-based, human; conditions: PC3; Gamitrinib 5 μM time course, metformin 5 mM 6 h, 17-AAG 5 μM time course
Protocol: as §3

O=CC[C@@H](O)[C@H](O)[C@H](O)CO [2-DG, 2-deoxy-D-glucose] was tested, and the tumor cell migration (PC3 cells [1]) was “suppressed tumor cell migration”, the tumor cell proliferation (PC3 cells [2]) was “did not affect cell proliferation” and the “cell death by Trypan blue exclusion” value (PC3 cells [3]) was “did not affect”. The tumor cell invasion (PC3 cells [4]) was “suppressed”.

In the case of N#CC(C#N)=NNc1cccc(Cl)c1 [CCCP, carbonyl cyanide 3-chlorophenylhydrazone], the tumor cell migration (PC3 cells [1]) is reported as “suppressed tumor cell migration”, the tumor cell proliferation (PC3 cells [2]) is reported as “did not affect cell proliferation” and the “cell death by Trypan blue exclusion” value (PC3 cells [3]) is reported as “did not affect”. For the same compound, the tumor cell invasion (PC3 cells [4]) was “suppressed” and the “FAK phosphorylation on Tyr397 and Tyr925” value [5] was “abolished FAK phosphorylation”.

CO[C@H]1C[C@@H]2CC[C@@H](C)[C@@](O)(O2)C(=O)C(=O)N2CCCC[C@H]2C(=O)O[C@H]([C@H](C)C[C@@H]2CC[C@@H](O)[C@H](OC)C2)CC(=O)[C@H](C)/C=C(\C)[C@@H](O)[C@@H](OC)C(=O)[C@H](C)C[C@H](C)/C=C/C=C/C=C/1C [rapamycin, Rapamycin] was tested, and the 4EBP1 phosphorylation (4EBP1) was “suppressed 4EBP1 phosphorylation”, the tumor cell migration (PC3 cells [1]) was “no effect” and the “FAK phosphorylation on Tyr397 and Tyr925” value [5] was “no effect”.

CN(C)C(=N)N=C(N)N [metformin] was tested, and the “Raptor phosphorylation on Ser792” value (Raptor) was “phosphorylation of Raptor on Ser792”, the “ULK1 phosphorylation on Ser555” value (ULK1; PC3) was “increased ULK1 phosphorylation on Ser555” and the “ULK1 phosphorylation on Ser757” value (ULK1; PC3) was “decreased phosphorylation of ULK1 on Ser757”. The “AMPK and ACC phosphorylation” value (AMPK) was “activation of AMPK and ACC”.

C=CCNC1=C2C[C@@H](C)C[C@H](OC)[C@H](O)[C@@H](C)/C=C(\C)[C@H](OC(N)=O)[C@@H](OC)/C=C\C=C(/C)C(=O)NC(=CC1=O)C2=O [17-AAG, 17-allylamino demethoxygeldanamycin] was tested, and the tumor cell migration (PC3 cells [1]) was “did not affect tumor cell migration or invasion”, the “Raptor phosphorylation on Ser792” value (Raptor) was “remained unphosphorylated” and the tumor cell invasion (PC3 cells [4]) was “did not affect tumor cell migration or invasion”. The “ULK1 level after longer exposure” value (ULK1; 24-h exposure of tumor cells, data not shown) was “caused ULK1 degradation”, the “ULK1 phosphorylation on Ser555” value (ULK1; PC3) was “equally reduced” and the “ULK1 phosphorylation on Ser757” value (ULK1; PC3) was “equally reduced”. The “total level of ULK1” value (ULK1; PC3, time points of the Western blot experiment) was “not affected” and the “AMPK and ACC phosphorylation” value (AMPK) was “did not affect AMPK or ACC phosphorylation”.
